Data: publication PMC9131871, “Impact of Micropolymorphism Outside the Peptide Binding Groove in the Clinically Relevant Allele HLA-C*14 on T Cell Responses in HIV-1 Infection” (Journal of Virology, 2022)

Each sequence was assayed on NL4-3-infected .221-C1402 and .221-C1403 cells (assay: ICS assay, peptide-specific bulk T cells against NL4-3-infected .221 cells). Details: IFN-γ ICS, p24+ cells 52% and 54%, not by uninfected .221 cells, triplicate assays.
Assay type: cell-based, human
Method: We next investigated whether T cells specific for these peptides could recognize NL4-3-infected .221-C1402 or .221-C1403 cells.
FIG 5 Recognition of NL4-3-infected .221-CD4 cells by peptide-specific CD8^+ T cells. The response of bulk T cells specific for 6 peptides to NL4-3-infected .221-C1402 cells, NL4-3-infected .221-C1403 cells, NL4-3-infected 721.221 cells, uninfected .221-C1402 cells, and uninfected .221-C1403 cells was analyzed by ICS assay. The frequencies of p24^+ cells were as follows: NL4-3-infected .221-C1402 cells, 52%; NL4-3-infected .221-C1403 cells, 54%. The results are means and SDs from triplicate assays.
PBMCs from HIV-1-infected individuals were stimulated with 1 μM concentrations of the corresponding peptides and then cultured for 2 weeks in RPMI 1640 medium (Thermo Fisher) containing 10% FCS, 20 ng/mL of human recombinant interleukin 2 (rIL-2) (ProSpec), 1× minimal essential medium (MEM) nonessential amino acid solution (Gibco), and 1 mM sodium pyruvate solution (Gibco). Following T cell expansion, .221-C1402 cells or .221-C1403 cells prepulsed with each HIV-1 peptide or .221-C1402 cells or .221-C1403 cells infected with HIV-1 NL4-3 were added to a 96-well plate together with bulk-cultured T cells, and the cells were incubated for 4 h at 37°C with brefeldin A ([…]). The cells were then stained with Pacific blue (PB)-labeled anti-CD3 MAb (BioLegend), FITC-labeled anti-CD19 MAb (BioLegend), allophycocyanin (APC)-labeled anti-CD8 MAb (BioLegend), and a LIVE/DEAD fixable near-infrared (IR) dead-cell staining kit (Invitrogen) and subsequently fixed with 4% paraformaldehyde and incubated in permeabilization buffer (0.1% saponin–5% FBS–PBS). Thereafter, the cells were stained with phycoerythrin (PE)-labeled anti-IFN-γ MAb (BioLegend). Staining data were acquired on a FACSCanto II instrument (BD Biosciences) and analyzed using FlowJo 10.7.1 software.
For AFHHVAREL [Nef AL9], the “activation of peptide-specific T cells by NL4-3-infected .221-C1402 and .221-C1403 cells” value (“activation of peptide-specific T cells” for short) was “Strong functional activation”. With AFSPEVIPM [Gag AM9] the “activation of peptide-specific T cells” value was “Strong functional activation”. With IYHTQGYF [Nef IF8] the “activation of peptide-specific T cells” value was “Strong functional activation”. In the case of KYHSNWRAM [Pol KM9], the “activation of peptide-specific T cells” value is reported as “Strong functional activation”. For LYNTIAVLY [Gag LY9], the “activation of peptide-specific T cells” value was “Strong functional activation”. In the case of YFPDWQNYT [Nef YT9], the “activation of peptide-specific T cells” value is reported as “Strong functional activation”.

Each sequence was assayed against HLA-C*14:03 (Homo sapiens, UniProt P10321, A176E/A330V/A35S/A97T/C350S/D114A/D33S/L171W/L180R/L218V/M285V/M309V/M331V/P208H/Q277E/Q291P/R121W/R243W/R45H/S123F/S297R/S48A/T329A/T363A/V319A) (assay: HLA stabilization assay on RMA-S-C1403 cells). Details: 100 μM peptide, 26°C 1 h then 37°C 3 h, MAb DT-9 staining, flow cytometry, triplicate assays.
Assay type: cell-based
Source text: We next sought to confirm the HLA-C*14:02/C*14:03 restriction of the HIV-1 peptides identified by LC-MS/MS. First, we tested their ability to bind to HLA-C*14:02 or HLA-C*14:03 using HLA stabilization assays. Of the 25 HIV-1 peptides, three Env peptides, Env SI8, Env AM11, and Env VM9, are located in variable regions V2 and V3. In addition, Pol AF10, Pol PF8, Pol VWL9, and Env YI9 are located in regions where high sequence variation is reported in the LANL database. Therefore, we excluded these peptides from further analysis. The other 18 peptides were synthesized and tested for binding to HLA-C*14:02/C*14:03 by analyzing their ability to stabilize surface HLA expression on TAP-defective RMA-S cell lines expressing HLA-C*14:02 (RMA-S-C1402) or HLA-C*14:03 (RMA-S-C1403). These RMA-S cell lines express equivalent levels of HLA-C*14:02 and HLA-C*14:03 on the cell surface at 26°C, and surface HLA expression declines to very low levels when the cells are warmed to 37°C in the absence of exogenously added stabilizing peptides (Fig. 2A). Peptide binding was determined by evaluating whether HLA-I expression was stabilized in the presence of 100 μM peptide.
FIG 2 HLA-C*14:02/14:03 binding of HIV-1 peptides eluted from NL4-3-infected .221-C1402 and .221-C1403 cells as assessed by HLA stabilization assay using RMA-S cell lines. (A) Histogram plots showing surface expression of HLA-C*14:02 or HLA-C*14:03 on RMA-S-C1402 or RMA-S-C1403 cells at 26°C and after cells cultured at 26°C had been warmed to 37°C for 3 h. MFI values of cells cultured at 26°C were 27.4 for HLA-C*14:02 and 28.1 for HLA-C*14:03. MFI values of cells cultured at 37°C for 3 h were 5.0 for HLA-C*14:02 and 6.54 for HLA-C*14:03. (B) Analysis of binding of 14 HIV-1 NL4.3 peptides identified by LC-MS/MS to HLA-C*14:02 (blue) or HLA-C*14:03 (red) as measured in HLA class I stabilization assays using RMA-S-C1402 or RMA-S-C1403 cells. (C) Analysis of binding of 9 additional variant peptides to HLA-C*14:02 (blue) or C*14:03 (red). For panels B and C, peptides were tested at a concentration of 100 μM. Results are plotted as percent surface HLA-I expression relative to that at 26°C, calculated as the ratio of the MFI of peptide-pulsed RMA-S-C1402 or RMA-S-C1403 cells to that of control (non-peptide-pulsed) cells kept at 26°C, multiplied by 100. Means and standard deviations (SDs) from triplicate assays are shown. Statistical analyses were performed by unpaired t test. The P values were corrected for multiple testing. *, P < 0.05 and q < 0.05; **, P < 0.01 and q < 0.03; ***, P < 0.001 and q < 0.005.
The relative affinity of peptide binding to HLA-C*14:02 and -C*14:03 was examined using RMA-S-C1402 and RMA-S-C1403 cells as previously described ([15]). Briefly, RMA-S cells were cultured at 26°C for 16 h, pulsed with peptides at 26°C for 1 h, and subsequently incubated at 37°C for 3 h. Staining of cell surface HLA-C molecules was performed with the HLA-C-reactive monoclonal antibody (MAb) DT-9 ([48]), a gift from Mary Carrington, NIH, and fluorescein isothiocyanate (FITC)-conjugated sheep anti-mouse IgG (Jackson ImmunoResearch). Staining data were acquired on a FACSCanto II instrument (BD Biosciences) and analyzed using FlowJo 10.7.1 software. Relative HLA expression was calculated as the ratio of the mean fluorescence intensity (MFI) of peptide-pulsed RMA-S-C1402 cells or RMA-S-C1403 cells to that of control (non-peptide-pulsed) cells kept at 26°C, multiplied by 100 to express the values for peptide-pulsed cells as a percentage of that for the control cells at 26°C.
In the case of “ASGYIEAEV [Pol AV9, HIV-1 NL4-3 Pol 795–803 peptide …]”, the “binding to HLA-C*14:03 (stabilization of surface HLA expression)” value is reported as “did not exhibit detectable binding”. For “FFREDLAF [Pol FF8, HIV-1 NL4-3 Pol 1–8 peptide FFREDLAF]”, the “binding to HLA-C*14:03 (stabilization of surface HLA expression)” value was “low”. In the case of “FLGAAGSTM [Env FM9, HIV-1 NL4-3 Env 522–530 peptide …]”, the “binding to HLA-C*14:03 (stabilization of surface HLA expression)” value is reported as “did not exhibit detectable binding”. For “FMTKALGI [Tat FI8, HIV-1 NL4-3 Tat 38–45 peptide FMTKALGI]”, the “binding to HLA-C*14:03 (stabilization of surface HLA expression)” value was “did not exhibit detectable binding”. With “RFDSRLAF [Nef RF8, HIV-1 NL4-3 Nef 184–191 peptide RFDSRLAF]” the “binding to HLA-C*14:03 (stabilization of surface HLA expression)” value was “did not exhibit detectable binding”. With “VYYDPSKDL [Pol VYL9, HIV-1 NL4-3 Pol 472–480 peptide …]” the “binding to HLA-C*14:03 (stabilization of surface HLA expression)” value was “low”.

Same assay, conditions: peptide concentrations from 0.1 to 100 μM, 6 epitope peptides compared
For AFHHVAREL [Nef AL9], the “relative affinity in hierarchy of peptide-HLA-C*14 binding (HLA-C*14:03)” value was “lowest”. With AFSPEVIPM [Gag AM9] the “relative affinity in hierarchy of peptide-HLA-C*14 binding (HLA-C*14:03)” value was “highest”.
